Experimental data from PubChem BioAssay AID2202555 (NIEHS Division of Translational Toxicology (DTT)).
Inconclusive results are not listed. The source made the active and inactive calls. How the calls were made is not given here.

Tested on: rat and mouse 2-year carcinogenicity bioassay, tumor evidence
Test: Consolidated carcinogenicity assay summary data
Text: Cancer Evaluation Criteria
The National Toxicology Program describes the results of individual experiments on a chemical agent and notes the strength of the evidence for conclusions regarding each study. […] Other organizations, such as the International Agency for Research on Cancer, assign a strength of evidence for conclusions based on an examination of all available evidence, including animal studies such as those conducted by the NTP, epidemiologic studies, and estimates of exposure. Thus, the actual determination of risk to humans from chemicals found to be carcinogenic in laboratory animals requires a wider analysis that extends beyond the purview of these studies.
Five categories of evidence of carcinogenic activity are used in the Technical Report series to summarize the strength of evidence observed in each experiment: two categories for positive results (clear evidence and some evidence); one category for uncertain findings (equivocal evidence); one category for no observable effects (no evidence); and one category for experiments that cannot be evaluated because of major flaws (inadequate study). These categories of interpretative conclusions were first adopted in June 1983 and then revised on March 1986 for use in the Technical Report series to incorporate more specifically the concept of actual weight of evidence of carcinogenic activity. For each separate experiment (male rats, female rats, male mice, female mice), one of the following five categories is selected to describe the findings. These categories refer to the strength of the experimental evidence and not to potency or mechanism.
For studies showing multiple chemical-related neoplastic effects that if considered individually would be assigned to different levels of evidence categories, the following convention has been adopted to convey completely the study results. In a study with clear evidence of carcinogenic activity at some tissue sites, other responses that alone might be deemed some evidence are indicated as "were also related" to chemical exposure. In studies with clear or some evidence of carcinogenic activity, other responses that alone might be termed equivocal evidence are indicated as "may have been" related to chemical exposure.
When a conclusion statement for a particular experiment is selected, consideration must be given to key factors that would extend the actual boundary of an individual category of evidence. Such consideration should allow for incorporation of scientific experience and current understanding of long-term carcinogenesis studies in laboratory animals, especially for those evaluations that may be on the borderline between two adjacent levels. These considerations should include:
- adequacy of the experimental design and conduct;
- occurrence of common versus uncommon neoplasia;
- progression (or lack thereof) from benign to malignant neoplasia as well as from preneoplastic to neoplastic lesions;
- some benign neoplasms have the capacity to regress but others (of the same morphologic type) progress. At present, it is impossible to identify the difference. Therefore, where progression is known to be a possibility, the most prudent course is to assume that benign neoplasms of those types have the potential to become malignant;
- combining benign and malignant tumor incidences known or thought to represent stages of progression in the same organ or tissue;
- latency in tumor induction;
- multiplicity in site -specific neoplasia;
- supporting information from proliferative lesions (hyperplasia) in the same site of neoplasia or in other experiments (same lesion in another sex or species);
- presence or absence of dose relationships;
- statistical significance of the observed tumor increase;
- concurrent control tumor incidence as well as the historical control rate and variability for a specific neoplasm;
- survival-adjusted analyses and false positive or false negative concerns;
- structure-activity correlations; and
[…]

[1] = Route (rodents): Interperitoneal

## C=CC=C
Route (rodents): Inhalation
  carcinogen call: active

## C1COCCO1
Route (rodents): Dosed water
  carcinogen call: active; clear evidence

## O=P1(NCCCl)OCCCN1CCCl (stereo unspecified)
[1]
  carcinogen call: active; no evidence

## Cc1ccc(N=Nc2c(O)ccc3ccccc23)c([N+](=O)[O-])c1
Route (rodents): Dosed feed
  carcinogen call: active; some evidence

## Nc1ccc(O)c(N)c1
Route (rodents): Gavage
  carcinogen call: active; no evidence

## CNc1ccc(N(CCO)CCO)cc1[N+](=O)[O-]
Route (rodents): Dosed feed
  carcinogen call: active; equivocal evidence

## [O]=[Sb][O][Sb]=[O]
Route (rodents): Inhalation
  carcinogen call: active; some evidence

## Nc1ccc(S(=O)(=O)c2ccc(N)cc2)cc1
Route (rodents): Dosed feed
  carcinogen call: active; clear evidence

## C=C1C/C(=C/C)C(=O)O[C@@H]2CCN3CC=C(COC(=O)[C@@]1(O)CO)[C@H]23
Route (rodents): Gavage
  carcinogen call: active; clear evidence

## C[C@@H]1Cc2c(Cl)cc(C(=O)N[C@@H](Cc3ccccc3)C(=O)O)c(O)c2C(=O)O1
Route (rodents): Gavage
  carcinogen call: active; clear evidence

## CCCCC1C(=O)N(c2ccccc2)N(c2ccccc2)C1=O
Route (rodents): Gavage
  carcinogen call: active; equivocal evidence

## ClC=CCCl
Route (rodents): Gavage
  carcinogen call: active; clear evidence

## CC(Cl)CCl (stereo unspecified)
Route (rodents): Gavage
  carcinogen call: active; no evidence

## CN(C)c1ccc(C(=O)c2ccc(N(C)C)cc2)cc1
Route (rodents): Dosed feed
  carcinogen call: active; clear evidence

## CCc1ccccc1
Route (rodents): Inhalation
  carcinogen call: active; clear evidence

## Cc1ccc(Cl)cc1N
Route (rodents): Dosed feed
  carcinogen call: active; no evidence

## C=C(C)CCl
Route (rodents): Gavage
  carcinogen call: active; clear evidence

## Nc1cc([N+](=O)[O-])ccc1O
Route (rodents): Gavage
  carcinogen call: active; some evidence

## O=Cc1ccccc1
Route (rodents): Gavage
  carcinogen call: active; no evidence

## CC(CCl)OC(C)CCl (stereo unspecified)
Route (rodents): Gavage
  carcinogen call: active; no evidence

## CC(=O)CC(C)C
Route (rodents): Inhalation
  carcinogen call: active; some evidence

## Cc1ccc(N)cc1N
Route (rodents): Dosed feed
  carcinogen call: active; clear evidence

## Cc1ccc([N+](=O)[O-])cc1N
Route (rodents): Dosed feed
  carcinogen call: active; no evidence

## ClC(Cl)C(Cl)Cl
Route (rodents): Gavage
  carcinogen call: active; equivocal evidence

## ClC(Cl)C(Cl)(Cl)Cl
Route (rodents): Gavage
  carcinogen call: active; equivocal evidence

## Clc1ccc(-c2cc(Cl)c(Cl)cc2Cl)cc1Cl
Route (rodents): Gavage
  carcinogen call: active

## COc1c(Cl)c(Cl)c(Cl)c(Cl)c1Cl
Route (rodents): Gavage
  carcinogen call: active; some evidence

## Cc1ccc2c(c1N)C(=O)c1ccccc1C2=O
Route (rodents): Dosed feed
  carcinogen call: active; clear evidence

## COc1ccc(C(=O)/C(Br)=C\C(=O)O)cc1
[1]
  carcinogen call: active; clear evidence

## Oc1cc(Cl)ccc1Oc1ccc(Cl)cc1Cl
Route (rodents): Topical
  carcinogen call: active

## Nc1ncc([N+](=O)[O-])s1
Route (rodents): Dosed feed
  carcinogen call: active; clear evidence

## ClC(Cl)(Cl)C(Cl)(Cl)Cl
Route (rodents): Gavage
  carcinogen call: active; clear evidence

## Clc1cc2oc3c(Cl)c(Cl)c(Cl)cc3c2cc1Cl
Route (rodents): Gavage
  carcinogen call: active

## O=c1ccc2ccccc2o1
Route (rodents): Gavage
  carcinogen call: active; some evidence

## Nc1nc(N)c2nc(-c3ccccc3)c(N)nc2n1
Route (rodents): Dosed feed
  carcinogen call: active; equivocal evidence

## C=CC#N
Route (rodents): Gavage
  carcinogen call: active

## Cc1cccc(C)c1N
Route (rodents): Dosed feed
  carcinogen call: active; clear evidence

## Clc1cc2c(cc1Cl)Oc1cc(Cl)c(Cl)cc1O2
Route (rodents): Gavage, Second Route: Topical
  carcinogen call: active; clear evidence

## CC1CO1 (stereo unspecified)
Route (rodents): Inhalation
  carcinogen call: active; some evidence

## COP(=O)(OC)OC
Route (rodents): Gavage
  carcinogen call: active; clear evidence

## C=CCOCC1CO1 (stereo unspecified)
Route (rodents): Inhalation
  carcinogen call: active; equivocal evidence

## C=CC(N)=O
Route (rodents): Dosed water
  carcinogen call: active; clear evidence

## O=Nc1ccc(NO)cc1
Route (rodents): Dosed feed
  carcinogen call: active; no evidence

## O=[N+]([O-])c1ccc2c3c(cccc13)CC2
Route (rodents): Dosed feed
  carcinogen call: active; clear evidence

## CN(C)c1ccc2nc3ccc(=[N+](C)C)cc-3sc2c1
Route (rodents): Gavage
  carcinogen call: active; some evidence

## CCCN(CCC)c1c([N+](=O)[O-])cc(C(F)(F)F)cc1[N+](=O)[O-]
Route (rodents): Dosed feed
  carcinogen call: active; no evidence
